From the supplement of paper PMC11061612

Experiments:
[1] = system: EW-24 (Ewing's Sarcoma); assay: Bliss excess, mean over the matrix (fraction); higher = more synergy;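 also: after 72 h of two-drug dosing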
Procedure, shortened: (§1)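 Cell lines in DMEM/F12 or RPMI with 10% FBS were plated in 1536-well plates, held 24 hours at 37°C, 5% CO2, then given two-drug dose matrices for 72 hours (DMSO typically 0.2%). Viability was read by CellTiter-Glo 2.0 luminescence and scaled as inhibition from 0 (vehicle wells) to 1 (blank wells). Combination Emax is the second-highest inhibition in the matrix; Bliss excess is observed combination effect minus expected EA + EB − EA·EB, EA and EB being single-agent effects.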

[2] = system: ACHN (Kidney Carcinoma); assay: combination Emax (second highest fraction inhibited in the dose matrix, 72 h); higher = more inhibition; extreme values may be limits of the assay
Procedure, shortened: as §1

[3] = system: AMO-1 (Plasma Cell Myeloma); assay: as above
Procedure, shortened: as §1

[4] = system: BT-549 (Breast Carcinoma); assay: as above
Procedure, shortened: as §1

[5] = system: C-4-I (Cervical Carcinoma); assay: as above
Procedure, shortened: as §1

[6] = system: Ca9-22 (Head and Neck Carcinoma); assay: as above
Procedure, shortened: as §1

[7] = system: EFM-19 (Breast Carcinoma); assay: as above
Procedure, shortened: as §1

[8] = system: KARPAS-299 (T-Cell Non-Hodgkin's Lymphoma); assay: as above
Procedure, shortened: as §1

[9] = system: KMOE-2 (Acute Myeloid Leukemia); assay: as above
Procedure, shortened: as §1

[10] = system: KYSE-450 (Esophageal Squamous Cell Carcinoma); assay: as above
Procedure, shortened: as §1

[11] = system: NCI-H1915 (Non-Small Cell Lung Carcinoma); assay: as above
Procedure, shortened: as §1

[12] = system: NEC8 (Other Solid Carcinomas); assay: as above
Procedure, shortened: as §1

[13] = system: OVCAR-4 (Ovarian Carcinoma); assay: as above
Procedure, shortened: as §1

[14] = system: RF-48 (B-Cell Non-Hodgkin's Lymphoma); assay: as above
Procedure, shortened: as §1

[15] = system: SCC-15 (Oral Cavity Carcinoma); assay: as above
Procedure, shortened: as §1

[16] = system: SU8686 (Pancreatic Carcinoma); assay: as above
Procedure, shortened: as §1

[17] = system: TE-1 (Esophageal Squamous Cell Carcinoma); assay: as above
Procedure, shortened: as §1

[18] = system: TK10 (Kidney Carcinoma); assay: as above
Procedure, shortened: as §1

[19] = system: UACC-62 (Melanoma); assay: as above
Procedure, shortened: as §1

[20] = system: VA-ES-BJ (Other Solid Carcinomas); assay: as above
Procedure, shortened: as §1

SMILES	Bliss excess [1]	combination Emax [2]	combination Emax [3]	combination Emax [4]	combination Emax [5]	combination Emax [6]	combination Emax [7]	combination Emax [8]	combination Emax [9]	combination Emax [10]	combination Emax [11]	combination Emax [12]	combination Emax [13]	combination Emax [14]	combination Emax [15]	combination Emax [16]	combination Emax [17]	combination Emax [18]	combination Emax [19]	combination Emax [20]
CC1(C)CCC(CN2CCN(c3ccc(C(=O)NS(=O)(=O)c4ccc(NCC5CCOCC5)c([N+](=O)[O-])c4)c(Oc4cnc5[nH]ccc5c4)c3)CC2)=C(c2ccc(Cl)cc2)C1 [Venetoclax] + CCN(CCO)CCCOc1ccc2c(Nc3cc(CC(=O)Nc4cccc(F)c4)[nH]n3)ncnc2c1 [AZD2811] (first compound max 1 µM, 7x7, partner max 1 µM)	0.0194	0.739	0.816	0.336	0.269	0.236	0.541	0.818	0.293	0.27	0.224	0.205	0.333	0.43	0.295	0.158	0.298	0.16	0.28	0.359
Cc1c2c(nn1C)CSCc1cc(n(C)n1)CSc1cc(c3ccccc3c1)OCCCc1c(C(=O)O)n(C)c3c-2c(Cl)ccc13 [AZD5991] + CCN(CCO)CCCOc1ccc2c(Nc3cc(CC(=O)Nc4cccc(F)c4)[nH]n3)ncnc2c1 [AZD2811] (first compound max 1 µM, 7x7, partner max 1 µM)	-0.0172	0.27	1	0.575	1	0.465	0.783	0.987	0.759	0.54	0.294	0.33	0.506	0.262	0.307	0.172	0.676	0.228	0.887	0.395
CN(C)CCCOc1ccc(-c2ccc3ncc4c(c3c2)n(C2CCOCC2)c(=O)n4C)cn1 [AZD0156] + C=CCn1c(=O)c2cnc(Nc3ccc(N4CCN(C)CC4)cc3)nc2n1-c1cccc(C(C)(C)O)n1 [AZD1775] (first compound max 1 µM, partner max 1 µM)	-0.0804	0.933	0.827	0.613	0.755	0.721	0.607	0.918	0.854	0.583	0.563	0.336	0.55	0.602	0.308	0.208	0.627	0.353	0.391	0.381
C=CCn1c(=O)c2cnc(Nc3ccc(N4CCN(C)CC4)cc3)nc2n1-c1cccc(C(C)(C)O)n1 [AZD1775] + C1CN(CCC1(C(=O)N[C@@H](CCO)C2=CC=C(C=C2)Cl)N)C3=NC=NC4=C3C=CN4 [Capivasertib] (first compound max 3 µM, partner max 3 µM)	-0.0878	0.825	0.945	0.638	0.97	0.921	0.71	0.947	0.938	0.843	0.657	0.985	0.672	0.86	0.676	0.202	0.732	0.503	0.458	0.645
CN(CCO)CC[C@H](CSc1ccccc1)Nc1ccc(S(=O)(=O)NC(=O)c2ccc(N3CCC([C@@H](O)c4ccccc4-c4ccc(Cl)cc4)CC3)cc2)cc1S(=O)(=O)C(F)(F)F [AZD4320] + CN(C)CCCOc1ccc(-c2ccc3ncc4c(c3c2)n(C2CCOCC2)c(=O)n4C)cn1 [AZD0156] (first compound max 1 µM, 7x7, partner max 1 µM)	-0.0096	0.125	0.0251	0.227	0.145	0.0929	0.797	0.13	0.847	0.0751	0.271	0.203	0.184	0.773	0.202	0.0423	0.37	0.375	0.182	0.164
Cc1c2c(nn1C)CSCc1cc(n(C)n1)CSc1cc(c3ccccc3c1)OCCCc1c(C(=O)O)n(C)c3c-2c(Cl)ccc13 [AZD5991] + CC1(C)CCC(CN2CCN(c3ccc(C(=O)NS(=O)(=O)c4ccc(NCC5CCOCC5)c([N+](=O)[O-])c4)c(Oc4cnc5[nH]ccc5c4)c3)CC2)=C(c2ccc(Cl)cc2)C1 [Venetoclax] (first compound max 1 µM, 7x7, partner max 1 µM)	-0.0224	0.192	1	0.45	0.976	0.725	0.624	0.968	0.709	0.189	0.187	0.793	0.188	0.497	0.236	0.0608	0.65	0.208	0.962	0.145
CC1(C)CCC(CN2CCN(c3ccc(C(=O)NS(=O)(=O)c4ccc(NCC5CCOCC5)c([N+](=O)[O-])c4)c(Oc4cnc5[nH]ccc5c4)c3)CC2)=C(c2ccc(Cl)cc2)C1 [Venetoclax] + C[C@@H]1COCCN1C2=NC(=NC(=C2)C3(CC3)[S@](=N)(=O)C)C4=C5C=CNC5=NC=C4 [AZD6738] (first compound max 1 µM, 7x7, partner max 10 µM)	0.0218	0.937	0.904	0.52	0.906	0.865	0.495	0.954	0.73	0.519	0.538	0.749	0.684	0.562	0.442	0.0868	0.543	0.609	0.481	0.813
NC1(C(=O)N[C@@H](CCO)c2ccc(Cl)cc2)CCN(c2ncnc3[nH]ccc23)CC1 [Capivasertib] + C[C@@H]1COCCN1C2=NC(=NC(=C2)C3(CC3)[S@](=N)(=O)C)C4=C5C=CNC5=NC=C4 [AZD6738] (first compound max 10 µM, 7x7, partner max 10 µM)	-0.0488	0.856	0.903	0.511	0.913	0.872	0.526	0.928	0.618	0.452	0.531	0.799	0.707	0.627	0.601	0.166	0.449	0.605	0.568	0.729
CC1(C)CCC(CN2CCN(c3ccc(C(=O)NS(=O)(=O)c4ccc(NCC5CCOCC5)c([N+](=O)[O-])c4)c(Oc4cnc5[nH]ccc5c4)c3)CC2)=C(c2ccc(Cl)cc2)C1 [Venetoclax] + C[C@@H](Nc1cc(F)cc(F)c1)c1cc(C(=O)N(C)C)cc2c(=O)cc(N3CCOCC3)oc12 [AZD8186] (first compound max 1 µM, 7x7, partner max 3 µM)	-0.01	0.842	0.842	0.258	0.398	0.471	0.412	0.829	0.323	0.118	0.118	0.0292	0.138	0.345	0.166	0.127	0.217	0.465	0.398	0.149
COc1cccc(OCCCN)c1-c1cc(Nc2cnc(C#N)cn2)n[nH]1 [Prexasertib] + C=CCn1c(=O)c2cnc(Nc3ccc(N4CCN(C)CC4)cc3)nc2n1-c1cccc(C(C)(C)O)n1 [AZD1775] (first compound max 1 µM, partner max 1 µM)	-0.1	0.96	0.99	0.845	0.962	1	0.62	0.978	0.992	0.999	0.749	0.999	0.866	0.786	0.638	0.531	0.763	0.661	0.798	0.804
CCN(CCO)CCCOc1ccc2c(Nc3cc(CC(=O)Nc4cccc(F)c4)[nH]n3)ncnc2c1 [AZD2811] + C[C@@H]1COCCN1C2=NC(=NC(=C2)C3(CC3)[S@](=N)(=O)C)C4=C5C=CNC5=NC=C4 [AZD6738] (first compound max 1 µM, 7x7, partner max 10 µM)	-0.104	0.905	0.859	0.487	0.841	0.903	0.355	0.936	0.615	0.63	0.325	0.649	0.688	0.462	0.437	0.248	0.449	0.602	0.519	0.696
CCN(CCO)CCCOc1ccc2c(Nc3cc(CC(=O)Nc4cccc(F)c4)[nH]n3)ncnc2c1 [AZD2811] + O=C(c1cc(Cc2n[nH]c(=O)c3ccccc23)ccc1F)N1CCN(C(=O)C2CC2)CC1 [Olaparib] (first compound max 1 µM, 7x7, partner max 10 µM)	0.0173	0.211	0.354	0.244	0.303	0.195	0.322	0.423	0.276	0.33	0.312	0.13	0.227	0.294	0.281	0.145	0.105	0.189	0.258	0.251
